US6914045B2, “Glycopeptide antibiotics” (Wyeth Holdings Corporation, priority 2001, dated 2005)
In brackets after ≈: the same amount, converted by molar mass.

Experiments:
Assay in all cases: in vitro antibacterial evaluation, MIC by broth dilution
Type in all cases: cell-based
[1] = system: Escherichia coli; settings: 18 hours at 35° C.
[2] = system: Streptococcus sp.; settings: broth dilution, 18 hours at 35° C.
Method in brief: (§1)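 MIC = lowest antibiotic concentration preventing visible growth; inoculum 5×10^5 CFU/mL; drug range 64-0.06 μg/mL; Muller-Hinton II […]; NCCLS M7-A2 guidance.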

[3] = system: Staphylococcus sp.; settings: broth dilution, 18 hours at 35° C.
Method in brief: as §1

[4] = system: Enterococcus sp.; settings: broth dilution, 18 hours at 35° C.
Method in brief: as §1

In the case of CC(c1ccccc1)C1NC(=O)CNC(=O)C(CO)NC(=O)C(C(O)C2CNC(=N)N2C2OC(CO)C(O)C(O)C2O)NC(=O)C(C(O)C2CNC(=N)N2)NC(=O)C(Cc2ccc(OC3OC(CO)C(OC4OC5COC6(CCC(C(C)(C)C)CC6)OC5C(O)C4O)C(O)C3O)cc2)NC1=O (stereo not shown) [Example 208], the “MIC Escherichia coli (ATCC 25922)” value [1] is reported as 64 µg/mL (≈ 44.7 µM), the “MIC Escherichia coli (GC 4559)” value [1] is reported as over 64 µg/mL and the “MIC Escherichia coli (GC 4560)” value [1] is reported as 8 µg/mL (≈ 5.59 µM). The “MIC Streptococcus agalactiae (GC 4564)” value [2] was 0.12 µg/mL (≈ 0.0838 µM), the “MIC Streptococcus pneumoniae (ATCC 6301)” value [2] was under 0.06 µg/mL and the “MIC Streptococcus pneumoniae (GC 1894)” value [2] was under 0.06 µg/mL. For the same molecule, the “MIC Streptococcus pneumoniae (GC 4565)” value [2] was under 0.06 µg/mL, the “MIC Streptococcus pyogenes (GC 4563)” value [2] was 0.12 µg/mL (≈ 0.0838 µM) and the “MIC Streptococcus pneumoniae (ATCC 6301)” value ([2]; inoculum 5×10^5 CFU/mL, strain ATCC 6301) was under 0.06 µg/mL. For the same molecule, the “MIC Streptococcus pneumoniae (GC 1894)” value ([2]; inoculum 5×10^5 CFU/mL, strain GC 1894) was under 0.06 µg/mL, the “MIC Streptococcus pyogenes (GC 4563)” value ([2]; inoculum 5×10^5 CFU/mL, strain GC 4563) was 0.12 µg/mL (≈ 0.0838 µM) and the “MIC Streptococcus agalactiae (GC 4564)” value ([2]; inoculum 5×10^5 CFU/mL, strain GC 4564) was 0.12 µg/mL (≈ 0.0838 µM). The “MIC Streptococcus pneumoniae (GC 4565)” value ([2]; inoculum 5×10^5 CFU/mL, strain GC 4565) was under 0.06 µg/mL, the “MIC Staphylococcus aureus (ATCC 29213)” value ([3]; strain ATCC 29213) was 4 µg/mL (≈ 2.79 µM) and the “MIC Staphylococcus aureus (GC 1131)” value ([3]; strain GC 1131) was 8 µg/mL (≈ 5.59 µM). The “MIC Staphylococcus aureus (GC 3051)” value ([3]; strain GC 3051) was 4 µg/mL (≈ 2.79 µM), the “MIC Staphylococcus aureus (GC 3053)” value ([3]; strain GC 3053) was 4 µg/mL (≈ 2.79 µM) and the “MIC Staphylococcus aureus (GC 4541)” value ([3]; strain GC 4541) was 8 µg/mL (≈ 5.59 µM). For the same molecule, the “MIC Staphylococcus aureus (GC 4542)” value ([3]; strain GC 4542) was 4 µg/mL (≈ 2.79 µM), the “MIC Staphylococcus aureus-SMITH (GC 4543)” value ([3]; strain GC 4543) was 4 µg/mL (≈ 2.79 µM) and the “MIC Staphylococcus aureus (GC 4544)” value ([3]; strain GC 4544) was 8 µg/mL (≈ 5.59 µM). For the same molecule, the “MIC Staphylococcus aureus (GC 4545)” value ([3]; strain GC 4545) was 4 µg/mL (≈ 2.79 µM), the “MIC Staphylococcus haemolyticus (GC 4546)” value ([3]; strain GC 4546) was 4 µg/mL (≈ 2.79 µM) and the “MIC Coagulase Negative Staphylococcus (GC 4547)” value ([3]; strain GC 4547) was 4 µg/mL (≈ 2.79 µM). For the same molecule, the “MIC Coagulase Negative Staphylococcus (GC 4548)” value ([3]; strain GC 4548) was 4 µg/mL (≈ 2.79 µM), the “MIC Coagulase Negative Staphylococcus (GC 4549)” value ([3]; strain GC 4549) was 4 µg/mL (≈ 2.79 µM) and the “MIC Coagulase Negative Staphylococcus (GC 4551)” value ([3]; strain GC 4551) was 4 µg/mL (≈ 2.79 µM). The “MIC Coagulase Negative Staphylococcus (GC 6257)” value ([3]; strain GC 6257) was 4 µg/mL (≈ 2.79 µM), the “MIC Enterococcus avium (GC 4558)” value [4] was 4 µg/mL (≈ 2.79 µM) and the “MIC Enterococcus faecalis (ATCC 29212)” value [4] was 8 µg/mL (≈ 5.59 µM). The “MIC Enterococcus faecalis (GC 2242)” value [4] was 8 µg/mL (≈ 5.59 µM), the “MIC Enterococcus faecalis (GC 2691)” value [4] was 8 µg/mL (≈ 5.59 µM) and the “MIC Enterococcus faecalis (GC 3059)” value [4] was 8 µg/mL (≈ 5.59 µM). For the same molecule, the “MIC Enterococcus faecalis (GC 4552)” value [4] was 8 µg/mL (≈ 5.59 µM), the “MIC Enterococcus faecalis (GC 4553)” value [4] was 8 µg/mL (≈ 5.59 µM) and the “MIC Enterococcus faecalis (GC 4554)” value [4] was 8 µg/mL (≈ 5.59 µM). For the same molecule, the “MIC Enterococcus faecalis (GC 6189)” value [4] was 8 µg/mL (≈ 5.59 µM), the “MIC Enterococcus faecium (GC 2243)” value [4] was 8 µg/mL (≈ 5.59 µM) and the “MIC Enterococcus faecium (GC 4556)” value [4] was 8 µg/mL (≈ 5.59 µM). The “MIC Enterococcus faecium (GC 4557)” value [4] was 8 µg/mL (≈ 5.59 µM), the “MIC Enterococcus faecalis (ATCC 29212)” value ([4]; inoculum 5×10^5 CFU/mL, strain ATCC 29212) was 8 µg/mL (≈ 5.59 µM) and the “MIC Enterococcus faecalis (GC 2242)” value ([4]; inoculum 5×10^5 CFU/mL, strain GC 2242) was 8 µg/mL (≈ 5.59 µM). The “MIC Enterococcus faecium (GC 2243)” value ([4]; inoculum 5×10^5 CFU/mL, strain GC 2243) was 8 µg/mL (≈ 5.59 µM), the “MIC Enterococcus faecalis (GC 2691)” value ([4]; inoculum 5×10^5 CFU/mL, strain GC 2691) was 8 µg/mL (≈ 5.59 µM) and the “MIC Enterococcus faecalis (GC 3059)” value ([4]; inoculum 5×10^5 CFU/mL, strain GC 3059) was 8 µg/mL (≈ 5.59 µM). For the same molecule, the “MIC Enterococcus faecalis (GC 4552)” value ([4]; inoculum 5×10^5 CFU/mL, strain GC 4552) was 8 µg/mL (≈ 5.59 µM), the “MIC Enterococcus faecalis (GC 4553)” value ([4]; inoculum 5×10^5 CFU/mL, strain GC 4553) was 8 µg/mL (≈ 5.59 µM) and the “MIC Enterococcus faecalis (GC 4554)” value ([4]; inoculum 5×10^5 CFU/mL, strain GC 4554) was 8 µg/mL (≈ 5.59 µM). For the same molecule, the “MIC Enterococcus faecium (GC 4556)” value ([4]; inoculum 5×10^5 CFU/mL, strain GC 4556) was 8 µg/mL (≈ 5.59 µM), the “MIC Enterococcus faecium (GC 4557)” value ([4]; inoculum 5×10^5 CFU/mL, strain GC 4557) was 8 µg/mL (≈ 5.59 µM) and the “MIC Enterococcus avium (GC 4558)” value ([4]; inoculum 5×10^5 CFU/mL, strain GC 4558) was 4 µg/mL (≈ 2.79 µM). The “MIC Enterococcus faecalis (GC 6189)” value ([4]; inoculum 5×10^5 CFU/mL, strain GC 6189) was 8 µg/mL (≈ 5.59 µM).
